{
  "source": "patent US20040138278A1",
  "about": "“Use of AT1 receptor antagonists for prevention of subsequent strokes” (Solvay Pharmaceuticals GmbH, priority 2002, published 2004)",
  "key": {"[1]": {"tested_on": "hypertensive patients after cerebral ischemia, transitory ischemic attack or intracerebral hemorrhage", "assay": "Prospective, randomized clinical study (PROBE design) of eprosartan versus nitrendipine for prevention of subsequent strokes, interim report", "assay_type": "in vivo, human", "details": "for incidence of subsequent cerebrovascular events / number of subsequent cerebrovascular events: interim report, 179 patients eprosartan group, 158 patients nitrendipine group, average observation period 18.4 / 18.3 months; for number of subsequent cerebrovascular events: start 600 mg eprosartan once daily or 10 mg nitrendipine q.d.", "description": "A clinical study is currently being conducted on 1369 patients, investigating the suitability of antihypertensive agents of various pharmacological classes to reduce a patient's risk of suffering a subsequent stroke.\nOf the 1369 patients (male/female), 691 patients received the AT1-receptor antagonist eprosartan (as eprosartan mesylate); 678 of the 1369 patients received the calcium antagonist nitrendipine.\nThe study is being conducted as a prospective, randomized, controlled and multicentric study and corresponds to the PROBE design (=prospective, randomized, open-blinded endpoint). The primary target criterion is the evaluation of the total mortality and the total number of cardiovascular and cerebrovascular events (strokes) in the sense of this invention.\nThe subsequent efficacy parameter is the change in mental abilities (evaluated on the basis of neurological findings, Barthel index and Rankin scale). In addition, the change in the average blood pressure over a period of time is evaluated in measurements performed on the patients sitting down in the office as well as in ambulatory 24-hour blood pressure measurements.\nThe study begins within 24 months after the occurrence of cerebral ischemia or an intracerebral hemorrhage in a patient. The patients are observed for up to four years. The essential prerequisite for including a patient in the study is hypertension requiring treatment and the condition following a cerebral ischemia, a transitory ischemic attack or an intracerebral hemorrhage within the last 24 months. Essential exclusion criteria include an occlusion or stenosis of greater than 70% of the internal carotid artery (ICA), manifest cardiac insufficiency (NYHY [sic; NYHA] class III-IV), age of patient greater than 85 years at the time of the cerebrovascular event, anticoagulant therapy for a patient because of cardiac arrhythmia, high-grade aortic or mitral valve stenosis, unstable angina pectoris or a known hypersensitivity to AT1-receptor antagonists or calcium antagonists of the dihyropyridine type or chemically related substances.\nAfter inclusion in the study, the patients begin the randomized treatment phase with eprosartan or nitrendipine. Depending on the blood pressure readings and patient-specific criteria, treatment begins with 600 mg eprosartan once daily or 10 mg nitrendipine q.d. For long-term therapy, a diastolic blood pressure of less than 90 mmHg sitting down and a systolic blood pressure of less than 140 mmHg are the goals. For the 24-hour blood pressure measurements, a daily average of less than or equal to 135/85 mmHg is the goal. If additional antihypertensive therapy is necessary, conventional recognized criteria such as those recommended by the German Hypertension League are followed in the combination therapy. Combination therapy with ACE inhibitors, AT1-receptor antagonists or calcium antagonists should not be used.\nStudy end points (target criteria) are transmitted immediately to the central study office, where they are treated as open-blind results with respect to the medication and then forwarded to the End Point Committee. The committee performs the evaluation and classification of the findings with regard to a cardiovascular or cerebrovascular end point.\nIn an interim report on this study, the data on a total of 337 of the participating patients has been evaluated; 179 of these 337 patients received eprosartan (eprosartan group) and 158 of these 337 patients received nitrendipine (nitrendipine group). […]"}, "[2]": {"tested_on": "hypertensive and nonhypertensive stroke patients", "details": "cited from earlier work"}},
  "data": [
    {"smiles": "CCOC(=O)C1=C(C)NC(C)=C(C(=O)OC)C1c1cccc([N+](=O)[O-])c1", "note": "(stereo not shown) [nitrendipine]", "values": [
      {"measurement": "incidence of subsequent cerebrovascular events", "setting": "[1]", "result": 13.9, "unit": "%"},
      {"measurement": "number of subsequent cerebrovascular events", "setting": "[1]", "result": 22}
    ]},
    {"smiles": "CCCCc1ncc(/C=C(\\Cc2cccs2)C(=O)O)n1Cc1ccc(C(=O)O)cc1.CS(=O)(=O)O", "note": "[eprosartan, (E)-α-[[2-butyl-1-[(4-carboxyphenyl)methyl]-1H-imidazol-5-yl]-methylene]-2-thiophenepropanoic acid monomethanesulfonate]", "values": [
      {"measurement": "incidence of subsequent cerebrovascular events", "setting": "[1]", "result": 8.4, "unit": "%"},
      {"measurement": "number of subsequent cerebrovascular events", "setting": "[1]", "result": 15},
      {"measurement": "reduction in a patient's risk of having a subsequent stroke", "setting": "[1]; monotherapy, conclusion from the interim clinical findings", "result": "significant reduction"}
    ]},
    {"smiles": "CCC[C@H](N[C@@H](C)C(=O)N1[C@H](C(=O)O)C[C@@H]2CCCC[C@@H]21)C(=O)OCC", "note": "[ACE monotherapy, perindopril]", "values": [
      {"measurement": "blood pressure of patients", "setting": "[2]; hypertensive group", "result": "lowered to a comparable extent"},
      {"measurement": "risk of suffering a subsequent stroke", "setting": "[2]; subgroup of hypertensive patients, versus placebo patient group", "result": "did not differ from the corresponding risk in the placebo patient group"}
    ]}
  ]
}
